US20230405201A1, “TECHNIQUES FOR INCREASING RED BLOOD CELL COUNT” (FRESENIUS MEDICAL CARE HOLDINGS, INC., priority 2020, published 2023)
Where two headings read alike, the source gives them in different places.

How the values were obtained:
[1] = cited from earlier work
[2] = cited from earlier work; remark: listed apart in the source
HSA = target: T1, HSA (Homo sapiens, UniProt P02768); settings: cited from earlier work
T1 construct: from tissue; host or cells: serum

[3] = Serum concentration of CMPF in normal and uremic subjects; format: in vivo, human; settings: uremic versus average normal concentration
Description: FIG. 4 illustrates carboxy-4-methyl-5-propyl-2-furanpropionate (CMPF) 401 in accordance with the present disclosure. CMPF is a 240 Da metabolite of furan fatty acids and a protein-bound uremic retention solute normally cleared by the healthy kidney. In CKD patients, CMPF levels are increased 5- to 15-fold compared to healthy subjects.
An average normal concentration for CMPF may be a mean (±SD) of about 4.6±1.8 with a range between about 3.6 and 7.7 mg/L. In uremic patients the mean concentration (CU) is about 25.9±10.2 mg/L (with a range of about 3.7 to 94 mg/L).
Accordingly, the relative increase (CU/CN) may be over 5-times higher than the average normal concentration. […] As much as 99.5% of all CMPF may be found bound to HSA in serum. Consequently, this high association to HSA may prevent a sufficient secretion due to lower renal clearance rates in uremic patients, for example, at a rate of about 0.05 mL/min, compared to 0.40 mL/min for healthy patients. Due to its strong binding affinity to HSA, the removal of CMPF through conventional hemodialysis is generally difficult and even practically ineffective.

[4] = target: human serum albumin (HSA) (Homo sapiens, UniProt P02768); settings: cited from earlier work
HSA's binding site 1 = HSA's binding site 1 (Homo sapiens, UniProt P02768); settings: cited from earlier work
Piezo1 = settings: cited from earlier work

Chain of human serum albumin (HSA) (P02768 25-609): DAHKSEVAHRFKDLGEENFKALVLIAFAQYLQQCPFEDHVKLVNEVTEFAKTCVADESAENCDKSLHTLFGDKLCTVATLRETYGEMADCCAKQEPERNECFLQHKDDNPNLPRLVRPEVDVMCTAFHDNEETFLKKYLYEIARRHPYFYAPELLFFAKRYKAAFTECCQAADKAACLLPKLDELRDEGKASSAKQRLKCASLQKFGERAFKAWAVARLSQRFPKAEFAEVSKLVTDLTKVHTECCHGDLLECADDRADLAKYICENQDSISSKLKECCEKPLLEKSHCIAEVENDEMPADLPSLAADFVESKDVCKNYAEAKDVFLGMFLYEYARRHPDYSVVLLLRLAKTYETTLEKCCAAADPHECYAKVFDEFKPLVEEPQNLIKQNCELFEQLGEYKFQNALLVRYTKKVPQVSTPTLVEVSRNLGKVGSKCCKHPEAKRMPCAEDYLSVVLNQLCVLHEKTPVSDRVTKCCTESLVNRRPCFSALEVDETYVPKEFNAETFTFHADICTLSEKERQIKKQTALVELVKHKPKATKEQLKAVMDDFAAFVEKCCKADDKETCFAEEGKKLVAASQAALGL
Chain of HSA's binding site 1 (P02768 25-609): as above
T1 sequence (P02768 25-609): as above

In the case of `CCCc1oc(CCC(=O)O)c(C(=O)O)c1C` [CMPF, 3-carboxy-4-methyl-5-propyl-2-furanpropionate], the renal clearance rate ([1]; healthy patients) is listed as 0.40 mL/min, the renal clearance rate ([1]; uremic patients) is listed as “about 0.05 mL/min” and the “average normal concentration, mean (±SD)” value ([2]; normal) is listed as “about 4.6±1.8 mg/L”. The “mean concentration (CU)” value ([2]; uremic patients) was “about 25.9±10.2 mg/L”, the “CMPF found bound to HSA in serum” value (HSA) was ≤ 99.5% and the “relative increase (CU/CN)” value [3] was “over 5 times”. The “constant of association with HSA molecules” value [4] was “about 10^8 M^−1”.

In the case of `CC(C)C1=CC(=O)C2(C)C(C1=O)C1(C)C(=O)C=C(C(C)C)C(=O)C21` (centres unmarked) [DTQ, dithymoquinone], the “binding affinity towards HSA's binding site 1 relative to CMPF” value (HSA's binding site 1) is given as “higher binding affinity towards HSA's binding site 1 than CMPF”.

In the case of `Cc1oc(-c2ccccc2)cc1C(=O)O` [Jedi1], the Piezo1 stimulation (Piezo1) is listed as “stimulate Piezo1”.

In the case of `Cc1oc(-c2cccs2)cc1C(=O)O` [Jedi2], the Piezo1 stimulation (Piezo1) is listed as “stimulate Piezo1”.

In the case of `Clc1cccc(Cl)c1CSc1nnc(-c2cnccn2)s1` [Yoda1], the Piezo1 stimulation (Piezo1) is given as “stimulate Piezo1”.
